Reference: patent US20260130921A1, “TREATMENT OF VIRAL INFECTIONS WITH COMBINATION OF PIKFYVE KINASE INHIBITORS AND TMPRSS-2 INHIBITORS” (AcuraStem Incorporated, priority 2020, published 2026)

Target: PIKFYVE (Homo sapiens, UniProt Q9Y2I7)
Assay: PIKFYVE assay (luciferase ADP-Glo kinase assay, Promega)
Assay type: biochemical
Conditions: Table 2
Protocol: The activity of Compounds 1-20 was measured using a PIKFYVE assay (luciferase ADP-Glo kinase assay available from Promega Corp. of Madison, WI).
The activity of Compounds 39-90 was also measured using a PIKFYVE assay (luciferase ADP-Glo kinase assay available from Promega Corp. of Madison, WI).

Sequence of PIKFYVE (Q9Y2I7 whole entry): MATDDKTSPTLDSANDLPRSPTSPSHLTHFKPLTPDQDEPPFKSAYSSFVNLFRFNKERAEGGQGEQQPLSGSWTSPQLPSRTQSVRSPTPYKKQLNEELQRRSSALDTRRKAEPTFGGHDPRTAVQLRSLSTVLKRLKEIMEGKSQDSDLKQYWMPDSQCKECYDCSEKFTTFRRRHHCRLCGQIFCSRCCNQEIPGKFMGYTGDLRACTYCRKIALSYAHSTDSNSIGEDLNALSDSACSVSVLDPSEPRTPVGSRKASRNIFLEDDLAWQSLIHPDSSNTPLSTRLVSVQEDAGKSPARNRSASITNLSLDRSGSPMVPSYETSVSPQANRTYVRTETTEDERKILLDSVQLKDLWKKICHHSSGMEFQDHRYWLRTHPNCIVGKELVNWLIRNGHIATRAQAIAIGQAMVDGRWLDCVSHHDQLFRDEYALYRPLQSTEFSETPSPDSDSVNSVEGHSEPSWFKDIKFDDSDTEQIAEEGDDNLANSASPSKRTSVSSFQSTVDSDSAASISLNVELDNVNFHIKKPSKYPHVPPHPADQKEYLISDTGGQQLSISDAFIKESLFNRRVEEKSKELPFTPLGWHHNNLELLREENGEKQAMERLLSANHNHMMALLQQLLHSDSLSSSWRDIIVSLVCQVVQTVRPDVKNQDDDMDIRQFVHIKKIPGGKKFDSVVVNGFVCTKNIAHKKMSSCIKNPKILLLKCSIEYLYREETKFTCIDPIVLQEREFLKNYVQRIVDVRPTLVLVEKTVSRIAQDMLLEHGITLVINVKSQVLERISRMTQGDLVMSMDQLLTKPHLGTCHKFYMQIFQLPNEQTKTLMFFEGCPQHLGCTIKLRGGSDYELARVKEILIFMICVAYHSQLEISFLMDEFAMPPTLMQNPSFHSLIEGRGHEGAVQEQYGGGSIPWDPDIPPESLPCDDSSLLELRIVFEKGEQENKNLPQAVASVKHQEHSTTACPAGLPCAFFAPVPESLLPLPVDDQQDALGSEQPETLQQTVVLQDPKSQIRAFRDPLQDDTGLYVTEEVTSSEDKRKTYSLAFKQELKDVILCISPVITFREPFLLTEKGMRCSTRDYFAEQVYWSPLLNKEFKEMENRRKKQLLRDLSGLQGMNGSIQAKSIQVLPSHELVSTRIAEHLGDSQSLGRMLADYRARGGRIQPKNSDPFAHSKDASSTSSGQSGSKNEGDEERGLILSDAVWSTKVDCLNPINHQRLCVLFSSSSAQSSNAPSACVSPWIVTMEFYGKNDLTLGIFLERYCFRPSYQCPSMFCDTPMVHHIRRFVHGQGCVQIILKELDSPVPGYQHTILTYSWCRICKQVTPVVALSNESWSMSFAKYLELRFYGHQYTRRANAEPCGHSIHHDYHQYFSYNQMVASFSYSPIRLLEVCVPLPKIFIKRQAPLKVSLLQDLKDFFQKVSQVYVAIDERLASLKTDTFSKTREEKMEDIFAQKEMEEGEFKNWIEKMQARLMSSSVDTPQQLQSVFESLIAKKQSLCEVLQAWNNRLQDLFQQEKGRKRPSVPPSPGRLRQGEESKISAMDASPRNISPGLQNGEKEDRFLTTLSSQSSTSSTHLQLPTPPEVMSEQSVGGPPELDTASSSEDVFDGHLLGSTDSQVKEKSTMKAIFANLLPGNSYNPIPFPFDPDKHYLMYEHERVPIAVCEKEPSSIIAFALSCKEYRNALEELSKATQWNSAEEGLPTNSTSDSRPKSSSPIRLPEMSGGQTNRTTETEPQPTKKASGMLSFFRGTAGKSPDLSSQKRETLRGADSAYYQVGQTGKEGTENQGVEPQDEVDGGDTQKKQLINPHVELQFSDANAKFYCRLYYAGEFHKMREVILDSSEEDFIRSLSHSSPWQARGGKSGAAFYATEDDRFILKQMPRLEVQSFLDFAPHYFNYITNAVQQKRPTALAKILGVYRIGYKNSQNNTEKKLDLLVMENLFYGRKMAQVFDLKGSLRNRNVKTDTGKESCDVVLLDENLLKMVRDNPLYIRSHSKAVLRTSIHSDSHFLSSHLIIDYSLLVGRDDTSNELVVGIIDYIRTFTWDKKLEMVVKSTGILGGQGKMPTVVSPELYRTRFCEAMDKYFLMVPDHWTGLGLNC

| IC50 | Structure (SMILES) |
| --- | --- |
| < 50 nM | Cc1cccc(-c2ccn(-c3nc(NCCc4cnccn4)cc(N4CCOCC4)n3)n2)c1 [Compound 47] |
| < 50 nM | COCC(O)c1nc(N2CCOCC2)cc(-n2ccc(-c3cccc(C)c3)n2)n1 (stereo not shown) [Compound 49] |
| < 10000 nM | c1ccc(-c2cn(-c3cc(N4CCOCC4)nc(OCCc4ccccn4)n3)cn2)cc1 [Compound 39] |
| < 500 nM | OCC(O)COc1nc(N2CCOCC2)cc(-n2cc3ccccc3n2)n1 (stereo not shown) [Compound 52] |
| < 500 nM | c1cc(-c2cc(N3CCOCC3)nc(OCC3CCCO3)n2)n[nH]1 (stereo not shown) [Compound 45] |
| < 500 nM | CNc1nc(N2CCOCC2)cc(-n2nc(-c3ccccc3)cc2C)n1 [Compound 85] |
| < 50 nM | Cc1cccc(-c2ccn(-c3nc(NCCc4ccccn4)cc(N4CCOCC4)n3)n2)c1 [Compound 46] |
| < 5 nM | Cc1cccc(-c2ccn(-c3cc(N4CCOCC4)nc(OC[C@@H](O)c4ccccc4)n3)n2)c1 [Compound 57] |
| < 50 nM | CCOC(=O)c1ccn(-c2cc(N3CCOCC3)nc(OCCc3ccn(C)n3)n2)n1 [Compound 70] |
| < 500 nM | OCC(O)COc1nc(N2CCOCC2)cc(-n2ncc3ccccc32)n1 (stereo not shown) [Compound 53] |
| < 50 nM | CN(C)Cc1cc(-c2ccccc2)nn1-c1cc(N2CCOCC2)nc(OCCc2cnn(C)c2)n1 [Compound 75] |
| < 500 nM | Cc1cccc(-c2ccn(-c3cc(N4CC[C@H]5OCC[C@H]54)nc(C(O)CO)n3)n2)c1 (stereo partly shown) [Compound 48] |
| < 50 nM | Cc1cccc(-c2ccn(-c3cc(N4CCOCC4)nc(C(F)(F)F)n3)n2)c1 [Compound 82] |
| < 50 nM | OCc1nc(N2CCOCC2)cc(-n2ccc(-c3ccccc3)n2)n1 [Compound 84] |
| < 50 nM | COCc1cc(-c2ccccc2)n(-c2cc(N3CCOCC3)nc(OCCc3cnn(C)c3)n2)n1 [Compound 77] |
| < 500 nM | Clc1ccc(-c2ccn(-c3cc(N4CCOCC4)nc(OCCc4ccccn4)n3)n2)cc1 [Compound 40] |
| < 500 nM | Cc1cn(-c2cc(N3CCOCC3)nc(OCCc3cnn(C)c3)n2)nc1-c1ccccc1 [Compound 63] |
| < 50 nM | COCc1nc(N2CCOCC2)cc(-n2ccc(-c3ccccc3)n2)n1 [Compound 69] |
| < 500 nM | Cc1cccc(-c2ccn(-c3cc(N4CCOCC4)nc(Cc4ccccc4)n3)n2)c1 [Compound 42] |
| < 50 nM | COc1nc(N2CCOCC2)cc(-n2ccc(-c3cccc(C)c3)n2)n1 [Compound 59] |
| < 5 nM | Cc1cccc(-c2ccn(-c3cc(N4CCOCC4)nc(OC[C@H](O)c4ccccc4)n3)n2)c1 [Compound 58] |
| < 50 nM | Cc1cccc(-c2ccn(-c3cc(N4CCOCC4)nc(N4CCCC4=O)n3)n2)c1 [Compound 61] |
| < 10000 nM | CC(C)(C)c1ccn(-c2cc(N3CCOCC3)nc(OCC(O)CO)n2)n1 (stereo not shown) [Compound 51] |
| < 50 nM | COC(c1ccccc1)c1nc(N2CCOCC2)cc(-n2ccc(-c3ccccc3)n2)n1 (stereo not shown) [Compound 78] |
| < 500 nM | COc1nc(N2CCOCC2)c(C)c(-n2ccc(-c3cccc(C)c3)n2)n1 [Compound 83] |
| < 500 nM | Cc1cccc(-c2ccn(-c3cc(N4CCOCC4)ncn3)n2)c1 [Compound 60] |
| < 10000 nM | Fc1ccc(-c2cnn(-c3cc(N4CC[C@H]5OCC[C@H]54)nc(CCCc4ccccn4)n3)c2)cc1 [Compound 41] |
| < 500 nM | COc1cc(N2CCOCC2)nc(-n2ccc(-c3cccc(C)c3)n2)n1 [Compound 87] |
